Assay results as given in ChEMBL document CHEMBL4219050, “Inhibit or Evade Multidrug Resistance P-Glycoprotein in Cancer Treatment” (J Med Chem, 2018).
Blank lines part the entries; values can stand above or below the molecule they belong to.

Key:
HCT-116 = assay: Cytotoxicity against human HCT116 cells; type: functional, cell-based
Homo sapiens = species: Homo sapiens; assay: (§1) Binding affinity to P-gp (unknown origin)
MES-SA/Dx5 = assay: Growth inhibition of human MES-SA/Dx5 cells after 72 hrs by SRB assay; type: functional, cell-based; conditions: MES-SA/Dx5, 72 h
[1] = Growth inhibition of human MDA435/LCC6 cells after 72 hrs by SRB assay; type: functional; conditions: MDA-435/LCC6, 72 h
[2] = as §1; parameters: species or system Homo sapiens

Compound: C/C(=C\c1csc(C)n1)[C@@H]1C/C=C\C/C=C\[C@H](C)[C@H](O)[C@@H](C)C(=O)C(C)(C)[C@@H](O)CC(=O)O1
- IC50 (HCT-116): 0.41 nM

- Activity (Homo sapiens): 10 µM
Compound: COc1ccc(CCN(C)CCCC(C#N)(c2ccc(OC)c(OC)c2)C(C)C)cc1OC (stereo not drawn)

Compound: CO[C@H]1C(=O)[C@]2(C)[C@@H](OC)C[C@H]3OC[C@@]3(OC(C)=O)[C@H]2[C@H](OC(=O)c2ccccc2)[C@]2(O)C[C@H](OC(=O)[C@H](O)[C@@H](NC(=O)OC(C)(C)C)c3ccccc3)C(C)=C1C2(C)C [CABAZITAXEL]
- IC50 (MES-SA/Dx5): 15 nM

Compound: C/C(=C\c1csc(C)n1)[C@@H]1C[C@@H]2O[C@]2(C)CCC[C@H](C)[C@H](O)[C@@H](C)C(=O)C(C)(C)[C@@H](O)CC(=O)N1 [IXABEPILONE]
- IC50 (HCT-116): 2.6 nM

Compound: CC(=O)O[C@H]1C(=O)[C@@]2(C)[C@H]([C@H](OC(=O)c3ccccc3)[C@]3(O)C[C@H](OC(=O)[C@H](O)[C@@H](NC(=O)c4ccccc4)c4ccccc4)C(C)=C1C3(C)C)[C@]1(OC(C)=O)CO[C@@H]1C[C@@H]2O [PACLITAXEL]
- IC50 [1]: 346 nM
- IC50 (MES-SA/Dx5): 210 nM

- EC50 [2]: < 100 nM
Compound: COc1cc2c(cc1OC)CN(CCc1ccc(NC(=O)c3cc(OC)c(OC)cc3NC(=O)c3cnc4ccccc4c3)cc1)CC2 [TARIQUIDAR]

- EC50 [2]: < 100 nM
Compound: O[C@@H](COc1cccc2ncccc12)CN1CCN([C@@H]2c3ccccc3[C@@H]3[C@H](c4ccccc42)C3(F)F)CC1 [ZOSUQUIDAR]
